Test results as given in patent publication US4808614A (priority 1987, dated 1989).

Legend:
Pseudorabies Virus = experiment: microbe, parasite or virus in culture; type: cell-based; details: Suid alphaherpesvirus 1, BSC-1, in Chlorocebus sabaeus, 72 h, read-out: Percent Plaque Inhibition
Herpes simplex, type I = experiment: cells; type: cell-based, Herpes simplex virus; details: Chlorocebus sabaeus, BSC-1, 72 h, read-out: Percent Plaque Inhibition
[1] = test system: X5563 plasma cell myeloma; experiment: Oncolytic activity in tumor system X5563 plasma cell myeloma; type: in vivo
[2] = test system: P1534J lymphatic leukemia; experiment: Oncolytic activity in tumor system P1534J lymphatic leukemia; type: in vivo
[3] = test system: L1210V lymphocytic leukemia; experiment: Oncolytic activity in tumor system L1210V lymphocytic leukemia; type: in vivo
CA-755 adenocarcinoma = experiment: Oncolytic activity in tumor system CA-755 adenocarcinoma; type: in vivo
6C3HED lymphosarcoma = experiment: Oncolytic activity in tumor system 6C3HED lymphosarcoma; type: in vivo

SMILES: Cc1cn(C2O[C@H](CO)[C@@H](O)C2(F)F)c(=O)[nH]c1=O (some centres unmarked) [DFAT, 1-(5-methyl-2,4-dioxo-1H,3H-pyrimidin-1-yl)-2-desoxy-2,2-difluororibose]
- inhibition at 3 µg/mL (Pseudorabies Virus): 5%
- inhibition at 6 µg/mL (Pseudorabies Virus): 6%
- inhibition at 12 µg/mL (Pseudorabies Virus): 12%
- inhibition at 25 µg/mL (Pseudorabies Virus): 15%
- inhibition at 50 µg/mL (Pseudorabies Virus): 18%
- inhibition at 100 µg/mL (Pseudorabies Virus): 23%
- inhibition at 0.39 µg/mL (Herpes simplex, type I): 4%
- inhibition at 0.78 µg/mL (Herpes simplex, type I): 8%
- inhibition at 1.56 µg/mL (Herpes simplex, type I): 0%
- inhibition at 3.12 µg/mL (Herpes simplex, type I): 12%
- inhibition at 6.25 µg/mL (Herpes simplex, type I): 15%
- inhibition at 12.5 µg/mL (Herpes simplex, type I): 35%
- inhibition at 25 µg/mL (Herpes simplex, type I): 53%
- inhibition at 50 µg/mL (Herpes simplex, type I): 72%
- inhibition at 100 µg/mL (Herpes simplex, type I): 96%

SMILES: Nc1ccn(C2O[C@H](CO)[C@@H](O)C2(F)F)c(=O)n1 (some centres unmarked) [Example 8, 1-(2-oxo-4-amino-1H-pyrimidin-1-yl)-2-desoxy-2,2-difluororibose]
- oncolytic activity [1]: demonstrated activity
- oncolytic activity [2]: demonstrated activity
- oncolytic activity [3]: demonstrated activity
- oncolytic activity (CA-755 adenocarcinoma): demonstrated activity
- oncolytic activity (6C3HED lymphosarcoma): demonstrated activity
